In patent US9365851B2, “Spalt-like transcription factor 4 (SALL4) and uses thereof” (National University of Singapore, priority 2011, dated 2016):
“Also recorded” adds a separate entry of the source.

How the values were obtained:
SALL4 = SALL4 knock-down in HCC cells (qPCR, Western blot); format: cell-based, human
Experimental: Lentiviruses expressing scrambled shRNA or E5 SALL4-specific shRNA were packaged by treansfection of 293T cells with lentiviral vector pLL3.7. 24 hours and 48 hours post-transfection, viruses were harvested and filtered through […]. Virus titers were determined by FACS analysis of GFP expression using infected 3T3 cells by the conventional ways. MOI 0.5 to 5 was used dependent on individual cell lines. Transduction of HCC cells were carried out using spinoculation protocol, virus was added to the trypsinized cells and let settle for an hour at 37° C. in a humidified atmostphere of 5% CO2, centrifuged at 2,200 RPM at 37° C. for 90 mins and incubated overnight at 37° C. in a humidified atmostphere of 5% CO2. Transduction efficiency was determined by GFP expression by FACS analysis.
After successfully establishing the expression pattern of SALL4 in human livers at various stages and the clinical significance of SALL4 in HCC, the functional roles of SALL4 in HCC was investigated. […] The efficiency of virus transduction was assessed by FACS analysis of GFP expression. […]
Next, the potential of SALL4 as a molecular target for therapeutic intervention in HCC was examined by performing loss-of-function studies. […] The efficiency of virus transduction was assessed by the percentage of cells expressing GFP by flow cytometry. […]

[1] = tested on: H661 lung carcinoma cells; test: MTS assay in lung carcinoma cells after knock-down; format: cell-based
From the text: FIGS. 16A-16B: Loss of SALL4 in lung cancer cells that express high level of SALL4 decreases cell viability. (16A) qPCR (bar chart) and western blot were done to confirm the dwonregulation of SALL4 RNA (qPCR) and protein (western blot) expression levels upon SALL4 gene knockdown by shRNA (E5) compared to the control (SC).

PTEN/AKT pathway [2] = test: PTEN/AKT pathway expression in SNU-387 cells after treatment (Western blot); format: cell-based, human; conditions: SNU-387, Western blot
From the text: The induction of Pten expression was not affected when wt peptide was administrated together with a Pten inhibitor. AKT, a molecule with levels of phosphorylation controlled by the expression of Pten was affected by the wt peptide addition accordingly. […] The effect of wt peptide on pAKT was abrogated by the Pten inhibitor. […] In contrast, the protein expression level of endogenous Pten was very high in the none-SALL4 expressing SNU387 cells.
To confirm the involvement of PTEN tumor suppressor in SALL4 peptide-induced reduction of number of viable HCC cells, PTEN expression was analyzed by western blot upon drug treatment. […] Whether the increase in PTEN expression upon SALL4 peptide treatment has an effect in PI3K signalling by dephosphorylating AKT was examined.
To confirm the involvement of the PTEN tumor suppressor in the SALL4 peptide-induced reduction of HCC cell viability, PTEN expression was analyzed by western blot upon drug treatment. […] If the increase in PTEN expression has an effect in PI3K signaling was next examined. PTEN functions as a phosphatase to dephosphorylate AKT.

PTEN/AKT pathway [3] = test: PTEN/AKT pathway expression in KBM5 cells (Western blot); format: cell-based
From the text: To further evaluate the specificity of the SALL4/PTEN pathway, next investigated was whether wild type peptide treatment could affect the expression of PTEN and its downstream target, phosphorylated AKT (pAKT).

Row | Substance | SALL4 isoforms mRNA level after knockdown (SALL4; SNU-398, four days post-transduction) | SALL4 protein level after knockdown (SALL4; Western blot) | cell viability (MTS) [1] | PTEN protein expression (PTEN/AKT pathway [2]) | phosphorylated AKT (pAKT) level (PTEN/AKT pathway [2]) | PTEN protein expression (PTEN/AKT pathway [2]; listed as SALL4 peptide) | levels of PTEN and pAKT (PTEN/AKT pathway [3])
1 | CTATTTAGCCAAAGGCAAA (short hairpin RNA, chemistry and delivery not given here, further chemistry not given here) [E5 shRNA] | 70% | almost all SALL4 proteins were gone | decrease of cell viability | – | – | – | –
2 | H-MSRRKQAKPQHI-OH [wt peptide, MSRRKQAKPQHI] | – | – | – | did not seem to change the expression of Pten significantly | little or no effect | slight increase in PTEN expression; also recorded: negligible effect on PTEN expression | little or no effect
